Laboratory results taken from ChEMBL document CHEMBL1833830, “1-[2-(2-Benzoyl- and 2-benzylphenoxy)ethyl]uracils as potent anti-HIV-1 agents” (Bioorg Med Chem, 2011).
In brackets after ≈: the same amount, converted by molar mass. Activity calls are given as the source filed them. The calls are words filed in the database; no cut-off is given here.

Columns and labels:
Human alphaherpesvirus 2 = test: Antiviral activity against HSV-2 assessed as inhibition of viral replication; format: functional, organism-based
[1] = tested on: Mammalian orthoreovirus 1; test: Antiviral activity against Reovirus 1 assessed as inhibition of viral replication; format: functional, organism-based
[2] = tested on: Human immunodeficiency virus 1; format: functional, organism-based; details: Human immunodeficiency virus 1, 3B, MT4, 96 h
[3] = tested on: Vesicular stomatitis virus; test: Antiviral activity against Vesicular stomatitis virus assessed as inhibition of viral replication; format: functional, organism-based
[4] = tested on: Respiratory syncytial virus; test: Antiviral activity against Respiratory syncytial virus assessed as inhibition of viral replication; format: functional, organism-based
[5] = molecular target: Human immunodeficiency virus type 1 reverse transcriptase (Human immunodeficiency virus 1, UniProt Q72547); test: Inhibition of RNA-dependent DNA polymerase activity of HIV1 reverse transcriptase p66/p51 heterodimer using [8-3H]dGTP as substrate after 30 mins by liquid scintillation counting
in vitro [6] = details: human, MT4 cells
[7] = tested on: Human immunodeficiency virus 2; test: Antiviral activity against Human immunodeficiency virus type 2 ROD infected in human MT4 cells assessed as inhibition of virus-induced cytopathic effect after 4 days by MTT assay; format: functional, organism-based; details: ISOLATE ROD
in vitro [8] = details: human, MT4 cells; remark: listed apart in the source
Feline coronavirus = test: Antiviral activity against Feline coronavirus assessed as inhibition of viral replication; format: functional, organism-based
[9] = tested on: Human immunodeficiency virus 2; test: Antiviral activity against Human immunodeficiency virus type 2 ROD infected in human CEM cells assessed as inhibition of virus-induced giant cell formation after 4 days by microscopic analysis; format: functional, organism-based; details: ISOLATE ROD, CCRF-CEM
Vaccinia virus = test: Antiviral activity against Vaccinia virus assessed as inhibition of viral replication; format: functional, organism-based; details: Orthopoxvirus vaccinia
Yellow fever virus = test: Antiviral activity against Yellow fever virus assessed as inhibition of viral replication; format: functional, organism-based
[10] = tested on: Human immunodeficiency virus 1; test: microbe, parasite or virus in culture; details: Human immunodeficiency virus 1, 3B, MT4, 96 h
Human respirovirus 3 = test: Antiviral activity against Parainfluenza 3 virus assessed as inhibition of viral replication; format: functional, organism-based
Coxsackievirus B4 = test: Antiviral activity against Coxsackievirus B4 assessed as inhibition of viral replication; format: functional, organism-based
Sindbis virus = test: Antiviral activity against Sindbis virus assessed as inhibition of viral replication; format: functional, organism-based
West Nile virus = test: Antiviral activity against West Nile virus assessed as inhibition of viral replication; format: functional, organism-based
[11] = Inhibition of DNA-dependent DNA polymerase activity of HIV1 reverse transcriptase p66/p66 homodimer using activated DNA and [alpha-32P]dATP after 30 mins by liquid scintillation counting; design: species or system Human immunodeficiency virus 1
Punta Toro virus = test: Antiviral activity against Punta Toro virus assessed as inhibition of viral replication; format: functional, organism-based
Dengue virus = test: Antiviral activity against Dengue virus assessed as inhibition of viral replication; format: functional, organism-based
[12] = Cytotoxicity against human MT4 cells after 4 days by MTT assay; format: cell-based
Human alphaherpesvirus 1 = test: Antiviral activity against HSV1 assessed as inhibition of viral replication; format: functional, organism-based
Rift Valley fever virus = test: Antiviral activity against Rift Valley fever virus assessed as inhibition of viral replication; format: functional, organism-based
[13] = Solubility of the compound in 0.1% DMSO after overnight incubation by UV spectrometric analysis; format: physicochemical
[14] = Solubility of the compound in 10% DMSO after overnight incubation by UV spectrometric analysis; format: physicochemical

Compound	Activity (Human alphaherpesvirus 2)	Activity [1]	EC50 [2] [µM]	Activity [3]	Activity [4]	Ki [5] [µM]	selectivity ratio (in vitro [6])	Activity [7]	selectivity ratio (in vitro [8])	Activity (Feline coronavirus)	Activity [9]	Activity (Vaccinia virus)	Activity (Yellow fever virus)	EC50 [10] [µM]	Activity (Human respirovirus 3)	Activity (Coxsackievirus B4)	Activity (Sindbis virus)	Activity (West Nile virus)	Ki [11] [µM]	Activity (Punta Toro virus)	further results
O=C(c1ccccc1)c1cc(Cl)ccc1OCCn1ccc(=O)[nH]c1=O	inactive	inactive	> 337	inactive	inactive	0.65	> 3790	inactive	1	inactive	inactive	inactive	inactive	0.089	inactive	inactive	inactive	inactive	0.98	inactive	Activity (Dengue virus): inactive; CC50 at 96 h [12]: > 337 µM; Activity (Human alphaherpesvirus 1): inactive; Activity (Rift Valley fever virus): inactive
Cc1cc(C)cc(C(=O)c2cc(Cl)ccc2OCCn2c(C)cc(=O)[nH]c2=O)c1	inactive	inactive	4.09	inactive	inactive	1.7	> 15100	inactive	> 74	inactive	inactive	inactive	inactive	0.02	inactive	inactive	inactive	inactive	0.73	inactive	Activity (Dengue virus): inactive; CC50 at 96 h [12]: > 303 µM; Activity (Human alphaherpesvirus 1): inactive; Activity (Rift Valley fever virus): inactive
Cc1cccc(C(=O)c2cc(Cl)ccc2OCCn2ccc(=O)[nH]c2=O)c1	inactive	inactive	52	inactive	inactive	0.21	> 6250	inactive	> 6	inactive	inactive	inactive	inactive	0.052	inactive	inactive	inactive	inactive	0.49	inactive	Activity (Dengue virus): inactive; CC50 at 96 h [12]: > 325 µM; Activity (Human alphaherpesvirus 1): inactive; Activity (Rift Valley fever virus): inactive
O=C(c1ccccc1)c1cc(Br)ccc1OCCn1ccc(=O)[nH]c1=O	inactive	inactive	> 301	inactive	inactive	0.45	> 4630	inactive	1	inactive	inactive	inactive	inactive	0.065	inactive	inactive	inactive	inactive	2	inactive	Activity (Dengue virus): inactive; CC50 at 96 h [12]: > 301 µM; Activity (Human alphaherpesvirus 1): inactive; Activity (Rift Valley fever virus): inactive
O=C(c1cc(Cl)cc(Cl)c1)c1cc(Br)ccc1OCCn1ccc(=O)[nH]c1=O	inactive	inactive	24.8	inactive	inactive	0.16	> 15200	inactive	> 10	inactive	inactive	inactive	inactive	0.017	inactive	inactive	inactive	inactive	0.69	inactive	solubility [13]: 0.2 µM (≈ 0.0968 µg/mL); solubility [14]: 1.5 µM (≈ 0.726 µg/mL); Activity (Dengue virus): inactive; CC50 at 96 h [12]: > 258 µM; Activity (Human alphaherpesvirus 1): inactive; Activity (Rift Valley fever virus): inactive
Cc1cc(C)cc(C(=O)c2cc(Cl)ccc2OCCn2cc(C)c(=O)[nH]c2=O)c1	inactive	inactive	4.09	inactive	inactive	1.1	> 6880	inactive	> 74	inactive	inactive	inactive	inactive	0.044	inactive	inactive	inactive	inactive	1.2	inactive	Activity (Dengue virus): inactive; CC50 at 96 h [12]: > 303 µM; Activity (Human alphaherpesvirus 1): inactive; Activity (Rift Valley fever virus): inactive
Cc1cc(C)cc(C(=O)c2cc(Br)ccc2OCCn2ccc(=O)[nH]c2=O)c1	inactive	inactive	> 282	inactive	inactive	1.7	> 12300	inactive	1	inactive	inactive	inactive	inactive	0.023	inactive	inactive	inactive	inactive	0.77	inactive	solubility [13]: 1.8 µM (≈ 0.798 µg/mL); solubility [14]: 6.6 µM (≈ 2.93 µg/mL); Activity (Dengue virus): inactive; CC50 at 96 h [12]: > 282 µM; Activity (Human alphaherpesvirus 1): inactive; Activity (Rift Valley fever virus): inactive
O=C(c1ccccc1)c1cc(F)ccc1OCCn1ccc(=O)[nH]c1=O	inactive	inactive	171	inactive	inactive	2.6	> 694	inactive	> 2	inactive	inactive	inactive	inactive	0.51	inactive	inactive	inactive	inactive	2.9	inactive	Activity (Dengue virus): inactive; CC50 at 96 h [12]: > 353 µM; Activity (Human alphaherpesvirus 1): inactive; Activity (Rift Valley fever virus): inactive
O=C(c1cc(Br)cc(Br)c1)c1cc(Cl)ccc1OCCn1ccc(=O)[nH]c1=O	inactive	inactive	> 237	inactive	inactive	0.47	> 7390	inactive	1	inactive	inactive	inactive	inactive	0.032	inactive	inactive	inactive	inactive	2.3	inactive	Activity (Dengue virus): inactive; CC50 at 96 h [12]: > 236 µM; Activity (Human alphaherpesvirus 1): inactive; Activity (Rift Valley fever virus): inactive
Cc1ccc(OCCn2ccc(=O)[nH]c2=O)c(C(=O)c2ccccc2)c1	inactive	inactive	> 357	inactive	inactive	1.7	> 1140	inactive	1	inactive	inactive	inactive	inactive	0.31	inactive	inactive	inactive	inactive	5.6	inactive	Activity (Dengue virus): inactive; CC50 at 96 h [12]: > 357 µM; Activity (Human alphaherpesvirus 1): inactive; Activity (Rift Valley fever virus): inactive
